# From US9701689B2, “Substituted pyridines and pyridazines as CCR10 receptor inhibitors” (KYOWA HAKKO KIRIN CO., LTD., priority 2012, dated 2017)
# Biological target: T1, human CCR10 (Homo sapiens, UniProt P46092)
# T1 construct: expressed in transfected cells; host or cells: KJMGER8 cells (Namalwa cell-derived line), beta-estradiol-induced; hCCR10G16 cells
# T1 sequence (P46092 1-362): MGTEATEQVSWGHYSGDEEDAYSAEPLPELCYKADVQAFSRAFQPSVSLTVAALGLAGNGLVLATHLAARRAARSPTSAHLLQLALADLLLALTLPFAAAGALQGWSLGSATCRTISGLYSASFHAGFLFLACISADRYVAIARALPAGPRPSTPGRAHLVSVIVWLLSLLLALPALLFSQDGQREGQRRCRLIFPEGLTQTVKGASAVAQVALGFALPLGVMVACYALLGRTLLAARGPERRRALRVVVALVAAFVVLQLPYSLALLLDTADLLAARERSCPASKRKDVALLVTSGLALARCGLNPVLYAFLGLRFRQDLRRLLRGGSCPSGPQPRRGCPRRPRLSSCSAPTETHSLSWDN
# Experiment: CCR10 antagonistic effect: calcium assay of human CCR10 (CTACK-induced increase of intracellular calcium in hCCR10G16 cells)
# Type: cell-based
# Conditions: at a concentration of not more than 1000 nmol/L; human CCR10-expressing hCCR10G16 cells, 300 nmol/L CTACK added; read-out: inhibition of increase in the calcium ion concentration
# Outline: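 Inhibition of CTACK-evoked calcium flux (max minus min Fluo-3 fluorescence over ~5 min, FDSS) was calculated against control in β-estradiol-induced human CCR10/Gα16 KJMGER8 cells, after 30 min compound preincubation at 37 °C; CTACK added from a 300 nmol/L solution.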
row,inhibition at up to 1 µM,Structure (SMILES)
1,≥ 50%,"COc1cc(F)ccc1Nc1cc(S(N)(=O)=O)ncc1C(=O)N1CCC(c2ccc(F)cc2)CC1 [Compound 99, 4-(4-fluoro-2-methoxyphenylamino)-5-[4-(4-fluorophenyl)piperidine-1-carbonyl]pyridine-2-sulfonamide]"
2,≥ 50%,"Cc1cc(C(F)(F)F)ccc1Nc1cc(S(N)(=O)=O)ncc1C(=O)N1CCC(c2ccc(F)cc2)CC1 [Compound 100, 5-[4-(4-fluorophenyl)piperidine-1-carbonyl]-4-[2-methyl-4-(trifluoromethyl)phenylamino]pyridine-2-sulfonamide]"
3,≥ 50%,"NS(=O)(=O)c1cc(Nc2ccccc2F)c(C(=O)N2CCC(c3ccc(F)cc3)CC2)cn1 [Compound 102, 5-[4-(4-fluorophenyl)piperidine-1-carbonyl]-4-(2-fluorophenylamino)pyridine-2-sulfonamide]"
4,≥ 50%,"NS(=O)(=O)c1cc(Nc2cccc(Cl)c2)c(C(=O)N2CCC(c3ccc(F)cc3)CC2)cn1 [Compound 103, 4-(3-chlorophenylamino)-5-[4-(4-fluorophenyl)piperidine-1-carbonyl]pyridine-2-sulfonamide]"
5,≥ 50%,"COc1cc(C)c(Nc2cc(S(N)(=O)=O)ncc2C(=O)N2CCC(c3ccc(F)cc3)CC2)cc1Cl [Compound 104, 4-(5-chloro-4-methoxy-2-methylphenylamino)-5-[4-(4-fluorophenyl)piperidine-1-carbonyl]pyridine-2-sulfonamide]"
6,≥ 50%,"Cc1cc(O)c(Cl)cc1Nc1cc(S(N)(=O)=O)ncc1C(=O)N1CCC(c2ccc(F)cc2)CC1 [Compound 105, 4-(5-chloro-4-hydroxy-2-methylphenylamino)-5-[4-(4-fluorophenyl)piperidine-1-carbonyl]pyridine-2-sulfonamide]"
7,≥ 50%,"NS(=O)(=O)c1cc(Nc2ccc(OC(F)F)cc2)c(C(=O)N2CCC(c3ccc(F)cc3)CC2)cn1 [Compound 106, 4-[4-(difluoromethoxy)phenylamino]-5-[4-(4-fluorophenyl)piperidine-1-carbonyl]pyridine-2-sulfonamide]"
8,≥ 50%,"Cc1ccc(Nc2cc(S(N)(=O)=O)ncc2C(=O)N2CCC(c3ccc(F)cc3)CC2)cc1C [Compound 107, 4-(3,4-dimethylphenylamino)-5-[4-(4-fluorophenyl)piperidine-1-carbonyl]pyridine-2-sulfonamide]"
9,≥ 50%,"Cc1ccc(Cl)cc1Nc1cc(S(N)(=O)=O)ncc1C(=O)N1CCC(c2ccc(F)cc2)CC1 [Compound 109, 4-(5-chloro-2-methylphenylamino)-5-[4-(4-fluorophenyl)piperidine-1-carbonyl]pyridine-2-sulfonamide]"
10,≥ 50%,"Cc1cc(C)cc(Nc2cc(S(N)(=O)=O)ncc2C(=O)N2CCC(c3ccc(F)cc3)CC2)c1 [Compound 110, 4-(3,5-dimethylphenylamino)-5-[4-(4-fluorophenyl)piperidine-1-carbonyl]pyridine-2-sulfonamide]"
11,≥ 50%,"CNS(=O)(=O)c1cc(Nc2ccc(F)cc2C)c(C(=O)N2CCC(c3ccc(F)cc3)CC2)cn1 [Compound 111, 4-(4-fluoro-2-methylphenylamino)-5-[4-(4-fluorophenyl)piperidine-1-carbonyl]-N-methylpyridine-2-sulfonamide]"
12,≥ 50%,"COCCNS(=O)(=O)c1cc(Nc2ccc(F)cc2C)c(C(=O)N2CCC(c3ccc(F)cc3)CC2)cn1 [Compound 112, 4-(4-fluoro-2-methylphenylamino)-5-[4-(4-fluorophenyl)piperidine-1-carbonyl]-N-(2-methoxyethyl)pyridine-2-sulfonamide]"
13,≥ 50%,"COC(=O)C1CCCN1S(=O)(=O)c1cc(Nc2ccc(F)cc2C)c(C(=O)N2CCC(c3ccc(F)cc3)CC2)cn1 (stereo not shown) [Compound 116, methyl 1-{4-(4-fluoro-2-methylphenylamino)-5-[4-(4-fluorophenyl)piperidine-1-carbonyl]pyridin-2-ylsulfonyl}pyrrolidine-2-carboxylate]"
14,≥ 50%,"CNC(=O)C1CCCN1S(=O)(=O)c1cc(Nc2ccc(F)cc2C)c(C(=O)N2CCC(c3ccc(F)cc3)CC2)cn1 (stereo not shown) [Compound 117, 1-{4-(4-fluoro-2-methylphenylamino)-5-[4-(4-fluorophenyl)piperidine-1-carbonyl]pyridin-2-ylsulfonyl}-N-methylpyrrolidine-2-carboxamide]"
15,≥ 50%,"Cc1cc(F)ccc1Nc1cc(S(=O)(=O)N2CCCC2)ncc1C(=O)N1CCC(c2ccc(F)cc2)CC1 [Compound 119, [4-(4-fluoro-2-methylphenylamino)-6-(pyrrolidin-1-ylsulfonyl)pyridin-3-yl][4-(4-fluorophenyl)piperidin-1-yl]methanone]"
16,≥ 50%,"Cc1cc(F)ccc1Nc1cc(S(=O)(=O)N2CCCC2C(=O)O)ncc1C(=O)N1CCC(c2ccc(F)cc2)CC1 (stereo not shown) [Compound 120, 1-{4-(4-fluoro-2-methylphenylamino)-5-[4-(4-fluorophenyl)piperidine-1-carbonyl]pyridin-2-ylsulfonyl}pyrrolidine-2-carboxylic acid]"
17,≥ 50%,"Cc1cc(F)ccc1Nc1cc(S(=O)(=O)N2CCCCC2)ncc1C(=O)N1CCC(c2ccc(F)cc2)CC1 [Compound 121, [4-(4-fluoro-2-methylphenylamino)-6-(piperidin-1-ylsulfonyl)pyridin-3-yl][4-(4-fluorophenyl)piperidin-1-yl]methanone]"
18,≥ 50%,"Cc1cc(F)ccc1Nc1cc(S(=O)(=O)N2CCOCC2)ncc1C(=O)N1CCC(c2ccc(F)cc2)CC1 [Compound 122, [4-(4-fluoro-2-methylphenylamino)-6-(morpholinosulfonyl)pyridin-3-yl][4-(4-fluorophenyl)piperidin-1-yl]methanone]"
19,≥ 50%,"Cc1cc(F)ccc1Nc1cc(S(=O)(=O)N2CCCC2C(N)=O)ncc1C(=O)N1CCC(c2ccc(F)cc2)CC1 (stereo not shown) [Compound 123, 1-{4-(4-fluoro-2-methylphenylamino)-5-[4-(4-fluorophenyl)piperidine-1-carbonyl]pyridin-2-ylsulfonyl}pyrrolidine-2-carboxamide]"
20,≥ 50%,"CC(=O)N1CCN(S(=O)(=O)c2cc(Nc3ccc(F)cc3C)c(C(=O)N3CCC(c4ccc(F)cc4)CC3)cn2)CC1 [Compound 124, 1-{4-{4-(4-fluoro-2-methylphenylamino)-5-[4-(4-fluorophenyl)piperidine-1-carbonyl]pyridin-2-ylsulfonyl}piperazin-1-yl}ethanone]"
21,≥ 50%,"Cc1cc(F)ccc1Nc1cc(S(=O)(=O)N(C)C)ncc1C(=O)N1CCC(c2ccc(F)cc2)CC1 [Compound 125, 4-(4-fluoro-2-methylphenylamino)-5-[4-(4-fluorophenyl)piperidine-1-carbonyl]-N,N-dimethylpyridine-2-sulfonamide]"
22,≥ 50%,"Cc1cc(F)ccc1Nc1cc(S(=O)(=O)NCC(=O)N2CCOCC2)ncc1C(=O)N1CCC(c2ccc(F)cc2)CC1 [Compound 130, 4-(4-fluoro-2-methylphenylamino)-5-[4-(4-fluorophenyl)piperidine-1-carbonyl]-N-(2-morpholino-2-oxoethyl)pyridine-2-sulfonamide]"
23,≥ 50%,"CC(=O)CNS(=O)(=O)c1cc(Nc2ccc(F)cc2C)c(C(=O)N2CCC(c3ccc(F)cc3)CC2)cn1 [Compound 131, 4-(4-fluoro-2-methylphenylamino)-5-[4-(4-fluorophenyl)piperidine-1-carbonyl]-N-(2-oxopropyl)pyridine-2-sulfonamide]"
24,≥ 50%,"Cc1cnc(CNS(=O)(=O)c2cc(Nc3ccc(F)cc3C)c(C(=O)N3CCC(c4ccc(F)cc4)CC3)cn2)cn1 [Compound 134, 4-(4-fluoro-2-methylphenylamino)-5-[4-(4-fluorophenyl)piperidine-1-carbonyl]-N-[(5-methylpyrazin-2-yl)methyl]pyridine-2-sulfonamide]"
25,≥ 50%,"Cc1cc(F)ccc1Nc1cc(S(=O)(=O)NCC#N)ncc1C(=O)N1CCC(c2ccc(F)cc2)CC1 [Compound 135, N-(cyanomethyl)-4-(4-fluoro-2-methylphenylamino)-5-[4-(4-fluorophenyl)piperidine-1-carbonyl]pyridine-2-sulfonamide]"
26,≥ 50%,"CC(=O)NC1CCN(S(=O)(=O)c2cc(Nc3ccc(F)cc3C)c(C(=O)N3CCC(c4ccc(F)cc4)CC3)cn2)CC1 [Compound 136, N-{1-{4-(4-fluoro-2-methylphenylamino)-5-[4-(4-fluorophenyl)piperidine-1-carbonyl]pyridin-2-ylsulfonyl}piperidin-4-yl}acetamide]"
27,≥ 50%,"Cc1cc(F)ccc1Nc1cc(S(=O)(=O)N2CCC(C(N)=O)CC2)ncc1C(=O)N1CCC(c2ccc(F)cc2)CC1 [Compound 138, 1-{4-(4-fluoro-2-methylphenylamino)-5-[4-(4-fluorophenyl)piperidine-1-carbonyl]pyridin-2-ylsulfonyl}piperidine-4-carboxamide]"
28,≥ 50%,"CNC(=O)[C@@H]1C[C@@H](O)CN1S(=O)(=O)c1cc(Nc2ccc(F)cc2C)c(C(=O)N2CCC(c3ccc(F)cc3)CC2)cn1 [Compound 141, (2S,4R)-1-{4-(4-fluoro-2-methylphenylamino)-5-[4-(4-fluorophenyl)piperidine-1-carbonyl]pyridin-2-ylsulfonyl}-4-hydroxy-N-methylpyrrolidine-2-carboxamide]"
